pIC50: −log10 of the molar value.
Assays:
[1] = molecular target: Arachidonate 5-lipoxygenase (Cavia porcellus); test: In vitro 5-lipoxygenase inhibition in guinea pig PMNs was determined based on 5-hydroxyeicosapentaenoic acid (5-HETE) production
[2] = molecular target: Arachidonate 5-lipoxygenase (Cavia porcellus); test: In vitro 5-lipoxygenase inhibition in guinea pig PMNs was determined based on LTB4 production

| SMILES | pIC50 [1] | pIC50 [2] |
| --- | --- | --- |
| NC(=O)N(O)CC1=Cc2ccc(Oc3ccccc3)cc2OCC1 [N-hydroxy-N-[(8-phenoxy-2,3-dihydro-1-benzoxepin-4-yl)methyl]urea] | 6.74 | 6.68 |
| CNC(=O)N(O)CC1=Cc2cc(Oc3ccc(F)cc3)ccc2OCC1 [N-{[7-(4-fluorophenoxy)-2,3-dihydro-1-benzoxepin-4-yl]methyl}-N-hydroxy-N'-methylurea] | 7.00 | 6.89 |
| NC(=O)N(O)CC1=Cc2cc(Oc3ccccc3)ccc2OCC1 [N-hydroxy-N-[(7-phenoxy-2,3-dihydro-1-benzoxepin-4-yl)methyl]urea] | 7.05 | 7.04 |
| NC(=O)N(O)CC1=Cc2cc(Oc3ccc(F)cc3)ccc2OCC1 [N-{[7-(4-fluorophenoxy)-2,3-dihydro-1-benzoxepin-4-yl]methyl}-N-hydroxyurea] | 7.04 | 7.01 |
| NC(=O)N(O)CC1=Cc2cc(Oc3ccccc3)ccc2SCC1 [N-hydroxy-N-[(7-phenoxy-2,3-dihydro-1-benzothiepin-4-yl)methyl]urea] | 6.92 | 6.89 |

From BindingDB's records for doi:10.1016/S0960-894X(01)80152-9 (1994)
